Where two headings read alike, the source gives them in different places.
Tests used:
[1] = Pharmacokinetic assessment: plasma concentrations by liquid chromatography tandem mass spectrometry after ticagrelor loading dose; type: in vivo, human (patients with myocardial infarction); details: for Tmax / AUC(0-t) / Cmax: both sexes, human, plasma, 180 mg
Experimental: Consecutive STEMI and NSTEMI patients admitted to the study site (Cardiology Department, Dr. A. Jurasz University Hospital, Bydgoszcz, Poland) were screened for eligibility. After admission to the study centre, confirmation of the initial diagnosis of STEMI or NSTEMI, and provision of a written informed consent to participate in the trial, all study participants received an oral 300 mg LD of plain aspirin (Polpharma SA, Starogard Gdański, Poland) and 180 mg LD ticagrelor in integral tablets with 250 mL tap water. Subsequently, within 15 minutes of ticagrelor LD, all patients underwent coronary angiography followed by PCI as required. During the periprocedural period, all study participants received unfractionated heparin in body weight adjusted dose according to the European Society of Cardiology (ESC) recommendations. Plasma concentrations of ticagrelor and its active metabolite, as well as their antiplatelet effect, were evaluated according to the sampling schedule employed at our centre in previous PK/PD study (pre-treatment, 0.5 h, 1 h, 2 h, 3 h, 4 h, 6 h and 12 h post ticagrelor LD).
Blood samples for PK/PD evaluation were obtained from an 18-gauge cannula inserted into one of the forearm veins. The first 5 mL blood was discarded to avoid spontaneous platelet activation. In each patient specimens were collected at the eight pre-defined time. Detailed description of blood sample processing has been published in the study protocol (S1 File).
Ticagrelor and AR-C124910XX plasma concentrations were analyzed with liquid chromatography coupled with tandem mass spectrometry, using a validated method. Lower limits of quantification were 4.69 ng/mL for both ticagrelor and AR-C124910XX.
Statistical calculations were performed using the Statistica 12.5 package (StatSoft, Tulsa, OK, USA). Pharmacokinetic calculations and plots were made using the Matlab R2014 software (Mathworks, Natick, MA, USA); trapezoidal rule was applied to calculate AUC. Data for pharmacokinetic features of ticagrelor and AR-C124910XX, pharmacodynamic outcome variables, creatinine, glomerular filtration rate and left ventricle ejection fraction were presented as medians and interquartile ranges. Data for heart rate, systolic and diastolic blood pressure, age and body mass index were presented as means with standard deviations. […] Continuous variables were compared between both study groups with the Student’s t-test and Mann-Whitney U test, depending on the presence or absence of the normal distribution (as assessed by the Shapiro-Wilk test). Comparisons between categorical variables were performed by the chi-square test, with Yates's correction if necessary, or using Fisher's exact test. […]
Blood samples for pharmacokinetic and phar- infarction; PCI, percutaneous coronary intervention; PD, macodynamic assessment will be drawn at eight prede- pharmacodynamics; PK, pharmacokinetics; STEMI, ﬁned time points according to the blood sampling ST-elevation myocardial infarction. schedule already used at our site in a previous study
( pretreatment baseline, 30 min, 1, 2, 3, 4, 6 andsamples will be stored at temperature below −60°C until 12 hours post-ticagrelor LD— as shown in ﬁgure 1). 31 analysed.
All enrolled patients with ﬁnally unconﬁrmed initial Venous blood for the assessment of pharmacodynam-diagnosis of AMI will be excluded from the primar y ana- ics with the vasodilator-stimulated phosphoprotein lysis. Patients qualiﬁed for urgent coronar y arter y bypass (VASP) assay and multiple electrode aggregometr y surgery within the blood sampling period also will not (MEA) will be collected into trisodium citrate and be included in the analysis. All study participants not hirudin vacuum test tubes, respectively. The ﬁrst 3–5mL receiving PCI will be reported. of blood will be discarded to avoid spontaneous platelet Study population activation. The pharmacodynamic analysis will be per- […]

[2] = as above; type: in vivo, human (patients with myocardial infarction); details: both sexes, human, oral, 180 mg, internal pilot study, first 15 patients with NSTEMI, mean and SD, read-out: AUC(0–6)
[3] = po, NSTEMI patients, oral 180 mg ticagrelor LD, 0 to 12 hours, median [interquartile range]
[4] = po, STEMI patients, oral 180 mg ticagrelor LD, 0 to 12 hours, median [interquartile range]

- Tmax ([1]; oral, NSTEMI opioid-treated (morphine) patients (second value of the pair), post hoc analysis, median [interquartile range]): 4 h
- Tmax ([1]; oral, NSTEMI patients without morphine (first value of the pair), post hoc analysis, median [interquartile range]): 1 h
- AUC(0-t) ([1]; oral, internal pilot study, first 30 patients with STEMI, mean and SD, read-out: AUC(0–6)): 2380 ± 2280 ng·h/mL
- AUC(0-t) ([1]; po, NSTEMI patients (n = 24), oral 180 mg ticagrelor LD, median [interquartile range], read-out: AUC(0–6)): 3990 ng·h/mL
- Cmax [1, 3]: 1160 ng/mL
- Tmax [1, 3]: 2.5 h
- AUC(0-t) ([1]; po, NSTEMI patients, oral 180 mg ticagrelor LD, median [interquartile range], read-out: AUC(0–12)): 8600 ng·h/mL
- AUC(0-t) ([1]; po, STEMI patients (n = 49), oral 180 mg ticagrelor LD, median [interquartile range], read-out: AUC(0–6)): 2490 ng·h/mL
- Cmax [1, 4]: 1110 ng/mL
- Tmax [1, 4]: 4 h
- AUC(0-t) ([1]; po, STEMI patients, oral 180 mg ticagrelor LD, median [interquartile range], read-out: AUC(0–12)): 5680 ng·h/mL
- lower AUC(0–6) in STEMI than in NSTEMI patients ([1]; first 6 h after 180 mg ticagrelor LD): 38%
- AUC(0-t) [2]: 6410 ± 4080 ng·h/mL
Compound: CCCSc1nc(N[C@@H]2C[C@H]2c2ccc(F)c(F)c2)c2nnn([C@@H]3C[C@H](OCCO)[C@@H](O)[C@H]3O)c2n1 [ticagrelor]

From PMC5638327, “Comparison of bioavailability and antiplatelet action of ticagrelor in patients with ST-elevation myocardial infarction and non-ST-elevation myocardial infarction: A prospective, observational, single-centre study” (PLoS ONE, 2017)
